In patent US12599136B2, “Substituted isophthalic acid diamides and their use as herbicides” (Bayer Aktiengesellschaft, priority 2020, dated 2026):

Columns and labels:
Type in all cases: in vivo
Abutilon theophrasti [1] = experiment: Pre-emergence herbicidal action against ABUTH; settings: visual score after 3 weeks vs untreated controls
How it was run: (§1)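 Greenhouse pots of sandy loam held seeds covered with soil, onto which the compound was applied before emergence. An aqueous suspension or emulsion of WP or EC was used at 600 to 800 l/ha with 0.2% wetting agent. Percent damage was judged visually at 3 weeks.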

Alopecurus myosuroides [2] = experiment: Pre-emergence herbicidal action against ALOMY; settings: visual score after 3 weeks vs untreated controls
How it was run: as §1

Amaranthus retroflexus [3] = experiment: Pre-emergence herbicidal action against AMARE; settings: visual score after 3 weeks vs untreated controls
How it was run: as §1

Avena fatua [4] = experiment: Pre-emergence herbicidal action against AVEFA; settings: visual score after 3 weeks vs untreated controls
How it was run: as §1

Echinochloa crus-galli [5] = experiment: Pre-emergence herbicidal action against ECHCG; settings: visual score after 3 weeks vs untreated controls
How it was run: as §1

Matricaria inodora [6] = experiment: Pre-emergence herbicidal action against MATIN; settings: visual score after 3 weeks vs untreated controls
How it was run: as §1

Pharbitis purpurea [7] = experiment: Pre-emergence herbicidal action against PHBPU; settings: visual score after 3 weeks vs untreated controls
Text: (§2) Seeds of monocotyledonous and dicotyledonous weed plants and crop plants are laid out in sandy loam soil in wood-fiber pots and covered with soil. The compounds of the invention, formulated in the form of wettable powders (WP) or as emulsion concentrates (EC), are then applied to the surface of the covering soil in the form of an aqueous suspension or emulsion at a water application rate equivalent to 600 to 800 l/ha, with addition of 0.2% wetting agent. After the treatment, the pots are placed in a greenhouse and kept under good growth conditions for the trial plants. The damage to the test plants is scored visually after a test period of 3 weeks by comparison with untreated controls (herbicidal activity in percent (%): 100% activity=the plants have died, 0% activity=like control plants). […] The tables below illustrate, in an illustrative manner, the post-emergence herbicidal action of the compounds of the invention, the herbicidal activity being stated in percent.

Setaria viridis [8] = experiment: Pre-emergence herbicidal action against SETVI
How it was run: as §1

Veronica persica [9] = experiment: Pre-emergence herbicidal action against VERPE
How it was run: as §1

Viola tricolor [10] = experiment: Pre-emergence herbicidal action against VIOTR
How it was run: as §1

Abutilon theophrasti [11] = experiment: Post-emergence herbicidal action against ABUTH
How it was run: (§3)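 A WP or EC formulation diluted in water with 0.2% wetting agent was sprayed at 600 to 800 l/ha onto one-leaf-stage plants grown in sandy loam. About 3 weeks later, action was rated visually in percent, 100% being dead plants.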

Alopecurus myosuroides [12] = experiment: Post-emergence herbicidal action against ALOMY; settings: 20 g/ha
How it was run: as §3

Amaranthus retroflexus [13] = experiment: Post-emergence herbicidal action against AMARE; settings: visual assessment about 3 weeks after treatment
How it was run: as §3

Matricaria inodora [14] = experiment: Post-emergence herbicidal action against MATIN; settings: visual assessment about 3 weeks after treatment
How it was run: as §3

Pharbitis purpurea [15] = experiment: Post-emergence herbicidal action against PHBPU; settings: visual assessment about 3 weeks after treatment
How it was run: as §3

Setaria viridis [16] = experiment: Post-emergence herbicidal action against SETVI; settings: visual assessment about 3 weeks after treatment
How it was run: as §3

Veronica persica [17] = experiment: Post-emergence herbicidal action against VERPE; settings: 20 g/ha, visual assessment about 3 weeks after treatment
How it was run: as §3

Viola tricolor [18] = experiment: Post-emergence herbicidal action against VIOTR
How it was run: as §3

Cyperus esculentus = experiment: Pre-emergence herbicidal action against CYPES; settings: visual score after 3 weeks vs untreated controls
Text: as §2

Polygonum convolvulus = experiment: Pre-emergence herbicidal action against POLCO
How it was run: as §1

Stellaria media [19] = experiment: Pre-emergence herbicidal action against STEME
Text: as §2

Avena fatua [20] = experiment: Post-emergence herbicidal action against AVEFA; settings: visual assessment about 3 weeks after treatment
How it was run: as §3

Echinochloa crus-galli [21] = experiment: Post-emergence herbicidal action against ECHCG; settings: visual assessment about 3 weeks after treatment
How it was run: as §3

Stellaria media [22] = experiment: Post-emergence herbicidal action against STEME; settings: visual assessment about 3 weeks after treatment
Description: Seeds of monocotyledonous and dicotyledonous weed and crop plants are laid out in sandy loam soil in wood-fiber pots, covered with soil and cultivated in a greenhouse under good growth conditions. 2 to 3 weeks after sowing, the test plants are treated at the one-leaf stage. The compounds of the invention, formulated in the form of wettable powders (WP) or as emulsion concentrates (EC), are then sprayed onto the green parts of the plants in the form of an aqueous suspension or emulsion at a water application rate equivalent to 600 to 800 l/ha, with addition of 0.2% wetting agent. After the test plants have been left to stand in the greenhouse under optimal growth conditions for about 3 weeks, the action of the preparations is assessed visually in comparison to untreated controls (herbicidal action in percent (%): 100% activity=the plants have died, 0% activity=like control plants). […] The tables below illustrate, in an illustrative manner, the post-emergence herbicidal action of the compounds of the invention, the herbicidal activity being stated in percent.

Digitaria sanguinalis = experiment: Pre-emergence herbicidal action against DIGSA
How it was run: as §1

CCN(CC)C(=O)c1c(Br)ccc(C(=O)Nc2nnnn2CC)c1Cl [Example 2-200]
80;; %: Post-emergence action against MATIN in % (Matricaria inodora [14]; 20 g/ha)
90%: Pre-emergence action against ALOMY (Alopecurus myosuroides [2]; 20 g/ha) | Pre-emergence action against AVEFA (Avena fatua [4]; 80 g/ha) | Pre-emergence action against ECHCG (Echinochloa crus-galli [5]; 80 g/ha) | Pre-emergence action against MATIN (Matricaria inodora [6]; 20 g/ha) | Pre-emergence action against PHBPU (Pharbitis purpurea [7]; 80 g/ha) | Pre-emergence action against VERPE (Veronica persica [9]; 80 g/ha) | Post-emergence action against VERPE in % (Veronica persica [17])
100%: Pre-emergence action against ABUTH (Abutilon theophrasti [1]; 20 g/ha) | Pre-emergence action against ABUTH (Abutilon theophrasti [1]; 80 g/ha) | Pre-emergence action against ALOMY (Alopecurus myosuroides [2]; 80 g/ha) | Pre-emergence action against AMARE (Amaranthus retroflexus [3]; 20 g/ha) | Pre-emergence action against AMARE (Amaranthus retroflexus [3]; 80 g/ha) | Pre-emergence action against MATIN (Matricaria inodora [6]; 80 g/ha) | Pre-emergence action against SETVI (Setaria viridis [8]; 80 g/ha) | Pre-emergence action against VIOTR (Viola tricolor [10]; 80 g/ha) | Post-emergence action against ALOMY (Alopecurus myosuroides [12]) | Post-emergence action against AMARE in % (Amaranthus retroflexus [13]; 5 g/ha) | Post-emergence action against AMARE in % (Amaranthus retroflexus [13]; 20 g/ha) | Post-emergence action against SETVI in % (Setaria viridis [16]; 5 g/ha) | Post-emergence action against SETVI in % (Setaria viridis [16]; 20 g/ha) | Post-emergence action against VIOTR in % (Viola tricolor [18]; 20 g/ha)
100;; %: Post-emergence action against ABUTH (Abutilon theophrasti [11]; 20 g/ha)
80%: Pre-emergence action against VIOTR (Viola tricolor [10]; 20 g/ha) | Post-emergence action against ABUTH (Abutilon theophrasti [11]; 5 g/ha) | Post-emergence action against PHBPU in % (Pharbitis purpurea [15]; 20 g/ha)

CCCn1nnnc1NC(=O)c1ccc(C(F)(F)F)c(C(=O)n2cccn2)c1Cl [Example 3-153]
80%: Pre-emergence action against CYPES (Cyperus esculentus; 80 g/ha) | Pre-emergence action against CYPES (Cyperus esculentus; 320 g/ha) | Pre-emergence action against MATIN (Matricaria inodora [6]; 20 g/ha) | Post-emergence action against AVEFA in % (Avena fatua [20]; 80 g/ha) | Post-emergence action against ECHCG in % (Echinochloa crus-galli [21]; 20 g/ha) | Post-emergence action against MATIN in % (Matricaria inodora [14]; 5 g/ha) | Post-emergence action against PHBPU in % (Pharbitis purpurea [15]; 5 g/ha) | Post-emergence action against PHBPU in % (Pharbitis purpurea [15]; 20 g/ha)
90%: Pre-emergence action against AVEFA (Avena fatua [4]; 320 g/ha) | Pre-emergence action against ECHCG (Echinochloa crus-galli [5]; 80 g/ha) | Pre-emergence action against POLCO (Polygonum convolvulus; 320 g/ha) | Pre-emergence action against SETVI (Setaria viridis [8]; 20 g/ha) | Pre-emergence action against STEME (Stellaria media [19]; 20 g/ha) | Pre-emergence action against VERPE (Veronica persica [9]; 320 g/ha) | Pre-emergence action against VIOTR (Viola tricolor [10]; 20 g/ha) | Post-emergence action against ABUTH (Abutilon theophrasti [11]; 5 g/ha) | Post-emergence action against ABUTH (Abutilon theophrasti [11]; 20 g/ha) | Post-emergence action against ABUTH (Abutilon theophrasti [11]; 80 g/ha) | Post-emergence action against AMARE in % (Amaranthus retroflexus [13]; 5 g/ha) | Post-emergence action against AMARE in % (Amaranthus retroflexus [13]; 20 g/ha) | Post-emergence action against MATIN in % (Matricaria inodora [14]; 20 g/ha) | Post-emergence action against PHBPU in % (Pharbitis purpurea [15]; 80 g/ha) | Post-emergence action against VIOTR in % (Viola tricolor [18]; 80 g/ha)
100%: Pre-emergence action against ABUTH (Abutilon theophrasti [1]; 20 g/ha) | Pre-emergence action against ABUTH (Abutilon theophrasti [1]; 80 g/ha) | Pre-emergence action against ABUTH (Abutilon theophrasti [1]; Dosage column 320 g/ha (heading prints 3200 g/ha)) | Pre-emergence action against AMARE (Amaranthus retroflexus [3]; 20 g/ha) | Pre-emergence action against AMARE (Amaranthus retroflexus [3]; 80 g/ha) | Pre-emergence action against AMARE (Amaranthus retroflexus [3]; 320 g/ha) | Pre-emergence action against ECHCG (Echinochloa crus-galli [5]; 320 g/ha) | Pre-emergence action against MATIN (Matricaria inodora [6]; 80 g/ha) | Pre-emergence action against MATIN (Matricaria inodora [6]; 320 g/ha) | Pre-emergence action against PHBPU (Pharbitis purpurea [7]; 320 g/ha) | Pre-emergence action against SETVI (Setaria viridis [8]; 80 g/ha) | Pre-emergence action against SETVI (Setaria viridis [8]; 320 g/ha) | Pre-emergence action against STEME (Stellaria media [19]; 80 g/ha) | Pre-emergence action against STEME (Stellaria media [19]; 320 g/ha) | Pre-emergence action against VIOTR (Viola tricolor [10]; 80 g/ha) | Pre-emergence action against VIOTR (Viola tricolor [10]; 320 g/ha) | Post-emergence action against AMARE in % (Amaranthus retroflexus [13]; 80 g/ha) | Post-emergence action against ECHCG in % (Echinochloa crus-galli [21]; 80 g/ha) | Post-emergence action against MATIN in % (Matricaria inodora [14]; 80 g/ha) | Post-emergence action against STEME in % (Stellaria media [22]; 5 g/ha) | Post-emergence action against STEME in % (Stellaria media [22]; 20 g/ha) | Post-emergence action against STEME in % (Stellaria media [22]; 80 g/ha)

CCn1nnnc1NC(=O)c1ccc(C(F)(F)F)c(C(=O)N(C)CC(F)F)c1Cl [Example 2-128]
80%: Pre-emergence action against PHBPU (Pharbitis purpurea [7]; 80 g/ha) | Post-emergence action against ABUTH (Abutilon theophrasti [11]; 5 g/ha) | Post-emergence action against ABUTH (Abutilon theophrasti [11]; 20 g/ha) | Post-emergence action against AVEFA in % (Avena fatua [20]; 20 g/ha) | Post-emergence action against ECHCG in % (Echinochloa crus-galli [21]; 20 g/ha) | Post-emergence action against MATIN in % (Matricaria inodora [14]; 5 g/ha) | Post-emergence action against PHBPU in % (Pharbitis purpurea [15]; 5 g/ha) | Post-emergence action against PHBPU in % (Pharbitis purpurea [15]; 20 g/ha) | Post-emergence action against SETVI in % (Setaria viridis [16]; 20 g/ha) | Post-emergence action against VERPE in % (Veronica persica [17])
90%: Pre-emergence action against ECHCG (Echinochloa crus-galli [5]; 80 g/ha) | Pre-emergence action against DIGSA (Digitaria sanguinalis; 20 g/ha) | Post-emergence action against MATIN in % (Matricaria inodora [14]; 20 g/ha)
100%: Pre-emergence action against ABUTH (Abutilon theophrasti [1]; 80 g/ha) | Pre-emergence action against ALOMY (Alopecurus myosuroides [2]; 80 g/ha) | Pre-emergence action against AMARE (Amaranthus retroflexus [3]; 20 g/ha) | Pre-emergence action against AMARE (Amaranthus retroflexus [3]; 80 g/ha) | Pre-emergence action against AVEFA (Avena fatua [4]; 80 g/ha) | Pre-emergence action against MATIN (Matricaria inodora [6]; 20 g/ha) | Pre-emergence action against MATIN (Matricaria inodora [6]; 80 g/ha) | Pre-emergence action against DIGSA (Digitaria sanguinalis; 80 g/ha) | Pre-emergence action against POLCO (Polygonum convolvulus; 80 g/ha) | Pre-emergence action against SETVI (Setaria viridis [8]; 80 g/ha) | Pre-emergence action against VERPE (Veronica persica [9]; 80 g/ha) | Pre-emergence action against VIOTR (Viola tricolor [10]; 20 g/ha) | Pre-emergence action against VIOTR (Viola tricolor [10]; 80 g/ha)
